From ChEMBL document CHEMBL1134068, “Thiazole analogues of the NSAID indomethacin as selective COX-2 inhibitors” (Bioorg Med Chem Lett, 2001) come the findings set out here.

Assay [1] deals with T1, Prostaglandin G/H synthase 2 (Homo sapiens) (UniProt P35354).
T1 sequence (whole entry): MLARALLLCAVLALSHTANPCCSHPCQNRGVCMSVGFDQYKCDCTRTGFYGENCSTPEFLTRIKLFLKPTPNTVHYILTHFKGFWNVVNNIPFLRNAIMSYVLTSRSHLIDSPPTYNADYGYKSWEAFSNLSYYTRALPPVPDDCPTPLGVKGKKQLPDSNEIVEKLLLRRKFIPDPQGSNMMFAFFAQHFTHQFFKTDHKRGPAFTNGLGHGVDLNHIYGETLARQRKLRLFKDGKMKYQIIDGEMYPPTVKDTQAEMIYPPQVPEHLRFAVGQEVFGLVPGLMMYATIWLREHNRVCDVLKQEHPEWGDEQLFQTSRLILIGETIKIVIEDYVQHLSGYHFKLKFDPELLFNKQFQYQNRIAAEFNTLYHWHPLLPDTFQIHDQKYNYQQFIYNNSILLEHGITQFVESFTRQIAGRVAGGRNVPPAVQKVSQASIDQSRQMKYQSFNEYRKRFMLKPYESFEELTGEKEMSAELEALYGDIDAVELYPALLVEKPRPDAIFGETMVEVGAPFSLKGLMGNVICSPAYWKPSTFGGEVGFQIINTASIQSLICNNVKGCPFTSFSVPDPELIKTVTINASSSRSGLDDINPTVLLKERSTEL
The assay is described as follows: Percent inhibition at 100 nM concentration against human recombinant Prostaglandin G/H synthase 2 cloned and expressed in baculovirus (Sf9).

For assay [2], the target named is T2, Prostaglandin G/H synthase 1 (Homo sapiens, UniProt P23219). The assay is described as follows: Percent inhibition at 10 uM concentration against human recombinant Prostaglandin G/H synthase 1 cloned and expressed in baculovirus.
T2 sequence (P23219 whole entry): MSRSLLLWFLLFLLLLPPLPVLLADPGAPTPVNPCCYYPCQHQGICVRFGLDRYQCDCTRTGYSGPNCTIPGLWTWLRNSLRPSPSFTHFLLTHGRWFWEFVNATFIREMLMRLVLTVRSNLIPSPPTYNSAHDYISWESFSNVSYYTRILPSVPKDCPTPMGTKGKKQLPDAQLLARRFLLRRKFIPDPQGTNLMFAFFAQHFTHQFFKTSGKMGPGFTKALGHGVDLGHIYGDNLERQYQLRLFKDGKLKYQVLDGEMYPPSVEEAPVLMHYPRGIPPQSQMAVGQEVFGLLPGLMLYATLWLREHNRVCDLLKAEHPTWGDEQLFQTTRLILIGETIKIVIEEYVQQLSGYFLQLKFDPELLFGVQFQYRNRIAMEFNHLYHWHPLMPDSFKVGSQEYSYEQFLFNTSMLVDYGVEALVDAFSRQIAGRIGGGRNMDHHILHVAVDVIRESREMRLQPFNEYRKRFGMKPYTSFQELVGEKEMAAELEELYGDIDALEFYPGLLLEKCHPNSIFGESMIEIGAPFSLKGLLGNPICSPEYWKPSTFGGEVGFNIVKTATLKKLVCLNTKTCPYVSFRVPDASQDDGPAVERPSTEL
Assay [3] concerns the target T2, Prostaglandin G/H synthase 1. The assay is described as follows: Percent inhibition at 10 uM concentration against human recombinant Prostaglandin G/H synthase 1 cloned and expressed in baculovirus (Sf9).
Assay [4] deals with T3, Prostaglandin G/H synthase 2 (Homo sapiens, UniProt P35354).
T3 sequence (P35354 whole entry): T1 sequence (whole entry)
The assay is described as follows: biochemical.
Description: Inhibitory concentration against human recombinant Prostaglandin G/H synthase 2 cloned and expressed in baculovirus (Sf9)

Assay [5] addresses T2, Prostaglandin G/H synthase 1. The assay is described as follows: Inhibitory concentration against human recombinant Prostaglandin G/H synthase 1 cloned and expressed in baculovirus (Sf9).

On to `Cc1c(Cc2nc(-c3ccc(Cl)cc3)cs2)c2cc(Br)ccc2n1C(=O)c1ccc(Br)cc1`, for which the inhibition was 9% in assay [1] and 4% in assay [2].

As for `COc1ccc2c(c1)c(Cc1nc(-c3ccc([N+](=O)[O-])cc3)cs1)c(C)n2C(=O)c1ccc(Cl)cc1`, in assay [3], the inhibition came out at 17%.

In the case of `Cc1c(Cc2nc(-c3ccc(Cl)cc3)cs2)c2cc(F)ccc2n1C(=O)c1ccc(Br)cc1`, the inhibition in assay [1] is 37%; in assay [2], 7%.

Consider `COc1ccc2c(c1)c(Cc1csc(-c3ccncc3)n1)c(C)n2C(=O)c1ccc(Cl)cc1`, for which the inhibition in assay [1] worked out at 75%; in assay [2], 57%.

For the compound `COc1ccc2c(c1)c(Cc1csc(-c3ccc(Cl)cc3)n1)c(C)n2C(=O)c1ccc(Cl)cc1`, the inhibition in assay [1] came out at 16%; in assay [2] it was 18%.

Take `COc1ccc2c(c1)c(Cc1csc(N)n1)c(C)n2C(=O)c1ccc(Cl)cc1`: the IC50 turned out to be 0.39 µM in assay [4] and 15500 µM in assay [5].

`COc1ccc2c(c1)c(Cc1nc(C34C[C@H]5C[C@@H](C3)C[C@@H](C4)C5)cs1)c(C)n2C(=O)c1ccc(Cl)cc1`: the inhibition was found to be 6% in assay [1] and 13% in assay [2].

Turning to `COc1ccc2c(c1)c(Cc1nc(-c3csc4ccccc34)cs1)c(C)n2C(=O)c1ccc(Cl)cc1`, the inhibition in assay [2] worked out at 20%.

On to `COc1ccc2c(c1)c(Cc1nc(-c3ccc(Cl)cc3)cs1)c(C)n2C(=O)c1ccc(Br)cc1`, for which the inhibition in assay [2] turned out to be 2%. This compound also showed an IC50 in assay [4] of 0.007 µM.

On to `Cc1c(Cc2nc(-c3ccc(Br)cc3)cs2)c2cc(Br)ccc2n1C(=O)c1ccc(Br)cc1`, for which the inhibition in assay [1] came out at 7%; in assay [2], 13%.

For the compound `COc1ccc2c(c1)c(Cc1nc(-c3ccc(S(C)(=O)=O)cc3)cs1)c(C)n2C(=O)c1ccc(Cl)cc1`, the results for the inhibition in assay [1] and in assay [2] were 33% and 15%, respectively.

For `COc1ccc2c(c1)c(Cc1nc(-c3ccc(F)cc3F)cs1)c(C)n2C(=O)c1ccc(Cl)cc1`, the figures for the inhibition in assay [1] and in assay [2] were 75% and 12%, respectively.

In the case of `Cc1c(Cc2nc(-c3ccc([N+](=O)[O-])cc3)cs2)c2cc(Br)ccc2n1C(=O)c1ccc(Br)cc1`, the inhibition in assay [1] came to 7%; in assay [2], 1%.

For the compound `COc1ccc2c(c1)c(Cc1nc(-c3ccc(C(=O)O)cc3)cs1)c(C)n2C(=O)c1ccc(Br)cc1`, the inhibition in assay [1] was 10%; in assay [2], 40%.

For the compound `COc1ccc2c(c1)c(Cc1csc(NC(=O)CN)n1)c(C)n2C(=O)c1ccc(Cl)cc1`, the inhibition came to 4% in assay [1] and 27% in assay [2].

As for `COc1ccc2c(c1)c(Cc1nc(-c3ccc(Br)cc3)cs1)c(C)n2C(=O)c1ccc(Br)cc1`, the inhibition in assay [2] was 3%. In addition, it took 0.03 µM to reach half-maximal inhibition in assay [4] (IC50).

For the compound `COc1ccc2c(c1)c(Cc1nc(C(=O)O)cs1)c(C)n2C(=O)c1ccc(Cl)cc1`, the inhibition in assay [1] is 2%; in assay [2], 6%.

`COc1ccc2c(c1)c(Cc1csc(-c3cccnc3)n1)c(C)n2C(=O)c1ccc(Cl)cc1`: the figures for the inhibition in assay [1] and in assay [2] were 20% and 47%, respectively.

With `CCN(CC)c1ccc(-c2csc(Cc3c(C)n(C(=O)c4ccc(Cl)cc4)c4ccc(OC)cc34)n2)cc1`, the results for the inhibition in assay [1] and in assay [2] were 36% and 23%, respectively.

In the case of `CCOC(=O)c1csc(Cc2c(C)n(C(=O)c3ccc(Cl)cc3)c3ccc(OC)cc23)n1`, the inhibition worked out at 40% in assay [1] and 1% in assay [2].

On to `COc1ccc2c(c1)c(Cc1csc(-c3ccccc3Cl)n1)c(C)n2C(=O)c1ccc(Cl)cc1`, for which the inhibition in assay [1] amounted to 42%; in assay [2] it was 24%.

As to `COc1ccc2c(c1)c(Cc1nc(-c3ccc4ccccc4c3)cs1)c(C)n2C(=O)c1ccc(Cl)cc1`, in assay [2], the inhibition turned out to be 11%.

On to `COc1ccc2c(c1)c(Cc1nc(-c3ccc([N+](=O)[O-])cc3)cs1)c(C)n2C(=O)c1ccc(Br)cc1`, for which the inhibition in assay [2] came out at 9%. In assay [4], this compound came in with an IC50 of 0.007 µM.

Regarding `COc1ccc2c(c1)c(Cc1nc(-c3ccc(Br)cc3)cs1)c(C)n2C(=O)c1ccc(Cl)cc1`, the inhibition in assay [3] came out at 27%.

`COc1ccc2c(c1)c(Cc1nc(-c3ccc(F)cc3)cs1)c(C)n2C(=O)c1ccc(Cl)cc1`: in assay [3], the inhibition was found to be 28%.

For the compound `COc1ccc2c(c1)c(Cc1csc(NC(=O)c3ccncc3)n1)c(C)n2C(=O)c1ccc(Cl)cc1`, the inhibition in assay [1] is 45%; in assay [2], 0%.

In the case of `Cc1c(Cc2nc(-c3ccc(Br)cc3)cs2)c2cc(F)ccc2n1C(=O)c1ccc(Br)cc1`, the inhibition in assay [1] came to 25%; in assay [2] it was 0%.

Consider `COc1ccc2c(c1)c(Cc1nc(-c3ccc(Cl)cc3)cs1)c(C)n2C(=O)c1ccc(Cl)cc1`, for which the inhibition in assay [3] amounted to 16%.

In the case of `Cc1c(Cc2nc(-c3ccc([N+](=O)[O-])cc3)cs2)c2cc(F)ccc2n1C(=O)c1ccc(Br)cc1`, the inhibition was determined as 40% in assay [1] and 1% in assay [2].

For the compound `COc1ccc2c(c1)c(Cc1nc(-c3cccc([N+](=O)[O-])c3)cs1)c(C)n2C(=O)c1ccc(Cl)cc1`, the results for the inhibition in assay [1] and in assay [2] were 85% and 35%, respectively.

Regarding `COc1ccc2c(c1)c(Cc1nc(-c3ccc(-c4ccccc4)cc3)cs1)c(C)n2C(=O)c1ccc(Cl)cc1`, the inhibition came out at 21% in assay [1] and 13% in assay [3].

Regarding `COc1ccc2c(c1)c(Cc1nc(C(C)C)cs1)c(C)n2C(=O)c1ccc(Cl)cc1`, the inhibition in assay [1] was determined as 1%; in assay [2], 36%.

For `COc1ccc2c(c1)c(Cc1nc(-c3cccc(Br)c3)cs1)c(C)n2C(=O)c1ccc(Cl)cc1`, in assay [2], the inhibition was determined as 18%.

On to `COc1ccc2c(c1)c(Cc1nc(-c3ccc(C(=O)O)cc3)cs1)c(C)n2C(=O)c1ccc(Cl)cc1`, for which the inhibition in assay [2] was found to be 35%. Also, in assay [4], half-maximal inhibition (IC50) was put at 0.12 µM.
